Source: patent US20180008688A1, “METHOD AND COMPOSITIONS FOR ENHANCING IMMUNOTHERAPEUTIC TREATMENT OF A CANCER” (Augusta University Research Institute, Inc., priority 2016, published 2018)
Entries after “also recorded” stand apart in the source; their conditions may differ. Where two headings read alike, the source gives them in different places.

Columns and labels:
[1] = test system: p53; experiment: p53 expression in mononuclear cells of tumors after systemic nutlin-3a (FACS); assay type: in vivo, mouse; settings: FIG. 7
Method: Antibody against the N-terminus of p53 (clone 1C12), used as in Watanabe et al., (2014) Immunity 40: 681-691, was from Cell Signaling Technology. Antibody against the C-terminus p53 (clone PAb122 (Gurney et al., (1980) J. Virol. 34: 752-763) was from Novus Biologicals. For both antibodies, staining was performed following permeablization with eBioscience fix-and-perm. Anti-phospho-p53(Ser15) (clone D4S1H) was from Cell Signaling Technology. For phospho-specific staining, cells were washed in PBS, fixed with 2% paraformaldehyde for 10 min at 37° C., pre-chilled for 1 min, then permeabilized by slow addition of ice-cold methanol to a final concentration of 90%. Cells were then incubated on ice for 30 min, washed with 1% FCS/PBS, blocked with the same solution for 10 min at room temperature, then for 1 h at room temperature and washed. Cells were acquired immediately after staining.
VO-OHpic was given at 10 mg/kg/day i.p., in 10% DMSO/PBS. Cyclophosphamide was given at 150 mg/kg i.p×1 dose. Oxaliplatin was given at 5 mg/kg i.p×1 dose. Nutlin-3a was dissolved at 2 mg/ml in 10% DMSO in buffered saline and administered daily at 10 mg/kg/day i.p. The 10 mg/kg/day dose was at the lower end of the parenteral dosing range described for mice (Zhang et al., (2011) Drug Meta. Dispos. 39: 15-21). […]

[2] = test system: B16F10 tumors; assay type: in vivo; settings: for anti-tumor effect: nutlin-3a added to CTX/VO-OHpic, FIG. 8B
Method: In vivo tumor studies: The B16F10 and E.G7 (EL4-OVA) cell lines were obtained from ATCC. B16-OVA (B16F10 transfected with full-length chicken ovalbumin) clone MO4 was according to Falo et al. ((1995) Nat. Med. 1: 649-653). B16F10 cells expressing EGFP protein (B16-GFP cells) were derived using lentiviral transfection. Tumor implantation was performed as described (Sharma et al., (2007) J. Clin. Invest. 117: 2570-2582), using 1×10^5 cells for B16F10 and 1×10^6 cells for other cell lines (large inocula were used to ensure rapid tumor engraftment and immune suppression). […] Tumor volume was calculated from orthogonal diameters using the formula V=L×W^2×π/6. Mice received approved euthanasia when tumors reached a size of 300 mm^2 (product of orthogonal diameters); death was never used a planned endpoint in any study.
(§1) Tumor implantation was performed as described (Sharma et al., (2007) J. Clin. Invest. 117: 2570-2582). VO-OHpic was given at 10 mg/kg/day i.p., in 10% DMSO/PBS. Cyclophosphamide was given at 150 mg/kg i.p×1 dose; and oxaliplatin at 5 mg/kg i.p×1 dose. Nutlin-3a was administered daily at 10 mg/kg/day i.p. For checkpoint blockade, mice received anti-CTLA-4 plus a cocktail of antibodies against the PD-1 pathway. Vaccines and T cell adoptive transfer studies were performed as described (Sharma et al., (2015) Sci. Advances. 1: e1500845).
VO-OHpic/CTX, nutlin-3a, oxaliplatin and immunotherapy regimens: The vanadate compound VO-OHpic (Mak et al., (2010) J. Chem. Biol. 3: 157-163) inhibits PTEN activity, and this drug was used to destabilize PTEN+Tregs during chemotherapy. Like all of the available PTEN-inhibitors, VO-OHpic can also affect other phosphatases (Spinelli et al., (2015) Adv. Biol. Regul. 57: 102-111).
VO-OHpic was given at 10 mg/kg/day i.p., in 10% DMSO/PBS. Cyclophosphamide was given at 150 mg/kg i.p×1 dose. Oxaliplatin was given at 5 mg/kg i.p×1 dose. […] For checkpoint blockade, mice received anti-CTLA-4 (clone 9D9, BioXcell) plus a cocktail of antibodies against the PD-1 pathway: anti-PD-L2, clone TY25 (Yamazaki et al., (2002) J. Immunol. 169: 5538-5545); anti-PD-1, clone J43 (Agata et al., (1996) Int. Immunol. 8: 765-772); and anti-PD-L1, clone MIH7 (Tsushima et al., (2003) Eur. J. Immunol. 33: 2773-2782). A cocktail was used in order to block the PD-1 pathway as completely as possible and thus minimize any peculiarities of a single blocking antibody.

[3] = test system: E.G7 tumors; experiment: E.G7 (EL4-OVA) tumors in wild-type hosts treated with oxaliplatin with or without nutlin-3a; assay type: in vivo, mouse; settings: for Ly6C+/CD103+ dendritic cells in tumors: nutlin added to oxaliplatin
Method: In vivo tumor studies: The B16F10 and E.G7 (EL4-OVA) cell lines were obtained from ATCC. B16-OVA (B16F10 transfected with full-length chicken ovalbumin) clone MO4 was according to Falo et al. ((1995) Nat. Med. 1: 649-653). B16F10 cells expressing EGFP protein (B16-GFP cells) were derived using lentiviral transfection. Tumor implantation was performed as described (Sharma et al., (2007) J. Clin. Invest. 117: 2570-2582), using 1×10^5 cells for B16F10 and 1×10^6 cells for other cell lines (large inocula were used to ensure rapid tumor engraftment and immune suppression). Tumors were implanted bilaterally in each mouse as a control for reproducible implantation technique; replicate tumor diameters in a single mouse were typically within ±15%. Tumor volume was calculated from orthogonal diameters using the formula V=L×W^2×π/6. Mice received approved euthanasia when tumors reached a size of 300 mm^2 (product of orthogonal diameters); death was never used a planned endpoint in any study.
as §1
VO-OHpic was given at 10 mg/kg/day i.p., in 10% DMSO/PBS. Cyclophosphamide was given at 150 mg/kg i.p×1 dose. Oxaliplatin was given at 5 mg/kg i.p×1 dose. Nutlin-3a was dissolved at 2 mg/ml in 10% DMSO in buffered saline and administered daily at 10 mg/kg/day i.p. The 10 mg/kg/day dose was at the lower end of the parenteral dosing range described for mice (Zhang et al., (2011) Drug Meta. Dispos. 39: 15-21). For checkpoint blockade, mice received anti-CTLA-4 (clone 9D9, BioXcell) plus a cocktail of antibodies against the PD-1 pathway: anti-PD-L2, clone TY25 (Yamazaki et al., (2002) J. Immunol. 169: 5538-5545); anti-PD-1, clone J43 (Agata et al., (1996) Int. Immunol. 8: 765-772); and anti-PD-L1, clone MIH7 (Tsushima et al., (2003) Eur. J. Immunol. 33: 2773-2782). A cocktail was used in order to block the PD-1 pathway as completely as possible and thus minimize any peculiarities of a single blocking antibody.

[4] = test system: E.G7 tumors; experiment: RIP-mOVA mice with E.G7 tumors treated with oxaliplatin with or without nutlin; assay type: in vivo; settings: nutlin-3a added to oxaliplatin
Method: A classical model of ICD was first tested in which EL4-OVA lymphoma tumors (clone E.G7) are treated with oxaliplatin chemotherapy (Ghiringhelli et al., (2009) Nat. Med. 15: 1170-1178). E.G7 bears the same model antigen as B16-OVA (described with the RIP-mOVA model, above), so it was possible to test the effects of nutlin plus oxaliplatin in the RIP-mOVA model.

[5] = nutlin-3a added to VO-OHpic+CTX

## COc1ccc(C2=NC(c3ccc(Cl)cc3)C(c3ccc(Cl)cc3)N2C(=O)N2CCNC(=O)C2)c(OC(C)C)c1 (single isomer, unassigned; (-)) [nutlin-3a, (−)-4-(4,5-Bis(4-chlorophenyl)-2-(2-isopropoxy-4-methoxyphenyl)-4,5-dihydro-1H-imidazole-1-carbonyl)piperazin-2-one]
[1]
  effect on p53 in remaining tumor cells (negative for CD11c/Ly6c/Gr 1): little effect
[1]; systemic nutlin-3a, including Ly6c+CD11c^NEG myeloid precursors
  increase in p53 levels in CD11c+ cells and myeloid cells in tumors: 2-3 fold
[2]
  anti-tumor effect: maintained a prolonged anti-tumor response
[2]; listed as Nutlin-3a
  anti-tumor effect: markedly prolonged and maintained the anti-tumor effect
[2]; [5]
  Ly6c+CD103+ dendritic cells in tumors: large population
  phospho-p53-Ser15 in dendritic cells: sustained elevation
[3]
  Ly6C+/CD103+ dendritic cells in tumors: sustained expression
[3]; listed as nutlin
  Ly6C+/CD103+ dendritic cells in tumors: maintained long-term expression
[3]; nutlin-3a added to one dose of oxaliplatin, FIG. 8C
  anti-tumor effect: markedly prolonged the anti-tumor effect; also recorded: significantly increased the intensity and duration of the anti-tumor effect
[3]; nutlin-3a added to oxaliplatin
  IL-12 production: enhanced IL-12 production
[4]
  anti-tumor activity: significantly enhancing the anti-tumor activity
  autoimmune diabetes: protected the mice from diabetes
